# pIC50: −log10 of the molar value. Marks after values point to notes of the source that are not given here.
# What was measured:
# HEK-293 cells = assay: MTT cell viability assay; assay type: cell-based; conditions: Homo sapiens, HEK293, 48-hour treatment
# Experimental: The HEK-293 cell line was acquired from the National Cell Bank of Iran, situated at the Pasteur Institute in Tehran. These cells were propagated in Roswell Park Memorial Institute (RPMI) medium, supplemented with 10% fetal bovine serum (FBS), 100 units/mL penicillin, and 100 μg/mL streptomycin. The culture conditions maintained were a humidified incubator set at 37°C, with 5% CO2 and 95% humid air. The culture medium was replenished twice per week until the cells reached 80 - 90% confluency. Subsequently, the cells were dissociated using trypsin and subcultured for passaging and cryopreservation. All experiments were conducted using cells within the passage number range of 3 - 6. Cells were routinely tested for mycoplasma contamination using Hoechst staining. Briefly, cells were fixed and stained with Hoechst 33258 dye, which binds to DNA. Samples were then examined under a fluorescence microscope for the presence of extranuclear DNA, indicative of mycoplasma infection. All cell cultures used in this study were confirmed to be mycoplasma-negative. […] In this study, (1 × 10^4) Hek-293 cells were seeded per well in 96-well plates. […] The measurement of absorbance was performed at an optical density (OD) of 570 nm. Cell viability was assessed by comparing the absorbance values of the drug-treated cells to those of untreated control cells. […]
# TNF-α = TNF-α concentration in LPS-stimulated HEK-293 cell line; assay type: cell-based; conditions: HEK-293 cells, LPS 1 μg/mL, 48 hours; for TNF-α concentration, higher dose versus lower dose: crocin 68 μM, nobiletin 65.5 μM; for TNF-α concentration (anti-inflammatory effect): crocin 34 and 68 μM, nobiletin 32.75 and 65.5 μM, vs LPS group
# Experimental: Figure 3. Tumor necrosis factor-alpha (TNF-α) concentration in HEK-293 cells treated with LPS (1 μg/mL) for 48 hours.
# rabbit eye = assay: Eye irritation test (Draize test) in rabbits' eyes
# Experimental: To assess the ocular toxicity of the two compounds, crocin and nobiletin, an in vivo eye irritation test was conducted. The concentrations evaluated were strategically chosen based on the respective IC50 of each compound. Specifically, the concentrations tested included the IC50 value itself, as well as concentrations at one-half and one-quarter of the IC50 value. This approach allowed for a comprehensive evaluation of the potential eye irritation caused by varying levels of exposure to these compounds. The experimental protocol involved the preparation of stock solutions for crocin and nobiletin using DMSO as the solvent at high concentrations. These stock solutions were then diluted with an artificial tear solution to obtain the desired treatment doses for instillation into the eye conjunctiva of the test subjects. Subsequently, the team meticulously observed and recorded any occurrences of eye symptoms, focusing on the iris, cornea, and conjunctiva over periods of 1, 24, 48, and 72 hours ([18]).
SMILES,pIC50 (HEK-293 cells),"TNF-α concentration, higher dose versus lower dose (TNF-α)",TNF-α concentration (anti-inflammatory effect) (TNF-α),"ocular observations (rabbit eye; rabbit, in vivo)","highest safe concentration (rabbit eye; rabbit, in vivo, 72 h)",highest safe concentration (rabbit eye; rabbit eye irritation test)
COc1ccc(-c2cc(=O)c3c(OC)c(OC)c(OC)c(OC)c3o2)cc1OC [Nobiletin],3.88,superior anti-inflammatory efficacy compared to their lower-dose counterparts,exhibited anti-inflammatory properties at all tested concentrations,"ocular turbidity was observed, along with mild conjunctival hyperemia",32.75 ^a µM,–
CC(/C=C/C=C(\C)C(=O)O[C@@H]1O[C@H](CO[C@@H]2O[C@H](CO)[C@@H](O)[C@H](O)[C@H]2O)[C@@H](O)[C@H](O)[C@H]1O)=C\C=C\C=C(C)\C=C\C=C(/C)C(=O)O[C@@H]1O[C@H](CO[C@@H]2O[C@H](CO)[C@@H](O)[C@H](O)[C@H]2O)[C@@H](O)[C@H](O)[C@H]1O [Crocin],3.87,superior anti-inflammatory efficacy compared to their lower-dose counterparts,exhibited anti-inflammatory properties at all tested concentrations,"ocular turbidity was observed, along with mild conjunctival hyperemia",–,34 ^a µM

# Source: PMC11742122, “Therapeutic Potential of Crocin and Nobiletin in a Mouse Model of Dry Eye Disease: Modulation of the Inflammatory Response and Protection of the Ocular Surface” (Iranian Journal of Pharmaceutical Research : IJPR, 2024)
